Residues, ends and D or L forms follow the SMILES beside them.
Tests used:
Assay type in all cases: cell-based
human NMUR1 receptor = target: T1, human NMUR1 receptor (Homo sapiens, UniProt Q9HB89); assay: IP1 Gq HTRF assay, activation of human NMUR1 in buffer; details: CHO-K1 cells expressing human NMUR1, stimulation buffer with 0.1% BSA; read-out: EC50 (hNMUR1) buffer
T1 construct: expressed in transfected cells; host or cells: CHO-K1
T1 sequence (Q9HB89 1-426): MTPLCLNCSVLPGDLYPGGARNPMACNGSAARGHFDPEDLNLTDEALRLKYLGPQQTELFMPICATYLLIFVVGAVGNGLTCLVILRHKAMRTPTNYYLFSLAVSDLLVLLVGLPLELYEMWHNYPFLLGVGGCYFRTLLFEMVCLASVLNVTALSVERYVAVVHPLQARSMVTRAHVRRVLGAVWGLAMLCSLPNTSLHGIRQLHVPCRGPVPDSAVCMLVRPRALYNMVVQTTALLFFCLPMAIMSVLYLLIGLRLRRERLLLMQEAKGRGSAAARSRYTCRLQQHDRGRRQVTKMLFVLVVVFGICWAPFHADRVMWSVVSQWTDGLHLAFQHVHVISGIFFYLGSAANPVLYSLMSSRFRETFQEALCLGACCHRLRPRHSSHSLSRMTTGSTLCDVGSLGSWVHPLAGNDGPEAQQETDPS
Method in brief: (§1)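 IP-One HTRF competition (665/620 nm ratio) read after 1 h agonist exposure at 37 °C in pH 7.4 HEPES/HBSS stimulation buffer containing 50 mM LiCl, 0.1% BSA, 1% DMSO. Cells: CHO-K1 stably expressing human NMUR2 or NMUR1. EC50 by 4-parameter nonlinear regression of 8-point curves.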

human NMUR2 receptor [1] = target: T2, human NMUR2 receptor (Homo sapiens, UniProt Q9GZQ4); assay: IP1 Gq HTRF assay, activation of human NMUR2 in buffer; parameters: expressed in transfected cells; host or cells: CHO-K1; details: CHO-K1 cells expressing human NMUR2, stimulation buffer with 0.1% BSA; read-out: EC50 (hNMUR2) buffer
Method in brief: as §1

human NMUR2 receptor [2] = target: T2, human NMUR2 receptor; assay: IP1 Gq HTRF assay, activation of human NMUR2 in human plasma; parameters: expressed in transfected cells; host or cells: CHO-K1; details: CHO-K1 cells expressing human NMUR2, 100% human plasma; read-out: EC50 (hNMUR2) human plasma
Method in brief: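 EC50 obtained via 4-parameter sigmoidal regression of HTRF IP-One signal (665 nm/620 nm), which falls as intracellular IP1 rises. Stimulation: 1 h, 37° C, peptides in human plasma plus 50 mM LiCl, 1% DMSO final, on NMUR2-expressing CHO-K1 cells, 8 concentrations.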

T2 sequence (Q9GZQ4 whole entry): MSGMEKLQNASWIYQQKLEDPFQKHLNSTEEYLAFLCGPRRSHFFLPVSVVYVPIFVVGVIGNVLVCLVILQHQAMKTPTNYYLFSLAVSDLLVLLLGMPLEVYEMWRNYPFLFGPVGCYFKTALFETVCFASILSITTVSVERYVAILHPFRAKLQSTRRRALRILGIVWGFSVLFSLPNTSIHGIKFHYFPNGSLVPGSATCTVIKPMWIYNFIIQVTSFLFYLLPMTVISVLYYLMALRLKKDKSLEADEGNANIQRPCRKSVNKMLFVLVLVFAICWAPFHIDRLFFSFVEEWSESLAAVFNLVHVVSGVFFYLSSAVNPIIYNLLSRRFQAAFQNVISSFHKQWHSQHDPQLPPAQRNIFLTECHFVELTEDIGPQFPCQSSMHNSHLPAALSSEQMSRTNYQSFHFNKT

Structure (SMILES)	EC50 (human NMUR1 receptor) [nM]	EC50 (human NMUR2 receptor [1]) [nM]	EC50 (human NMUR2 receptor [2]) [nM]
CCCC[C@H](NC(=O)[C@H](CC(C)C)N(C)C(=O)[C@H](Cc1ccccc1)NC(=O)[C@H](Cc1ccc(O)cc1)NC(=O)CN1CCN(CCNC(=O)CN(C)C(=O)CN(C)C(=O)CN(C)C(=O)CN(C)C(=O)CN(C)C(=O)CN(C)C(=O)CN(C)C(=O)CN(C)C(=O)CN(C)C(=O)CN(C)C(=O)CN(C)C(=O)CN(C)C(=O)CN(C)C(=O)CN(C)C(=O)CN(C)C(=O)CC[C@H](NC(=O)CC[C@H](NC(=O)CC[C@H](NC(=O)CCCCCCCCCCCCCCCCC(=O)O)C(=O)O)C(=O)O)C(=O)O)CC1)C(=O)N[C@@H](CCCN)C(=O)N(C)[C@@H](C)C(=O)N[C@@H](CCCNC(=N)N)C(=O)NCC(N)=O [Compound 22, C18DA-gGlu3-Sar15-AEPipAc-Tyr-Phe-NMeLeu-Nle-Orn-NMeAla-Arg-Gly-NH2] (HELM PEPTIDE1{[O=C(O)CCCCCCCCCCCCCCCCC(=O)[*:2]].[gGlu].[gGlu].[gGlu].[Sar].[Sar].[Sar].[Sar].[Sar].[Sar].[Sar].[Sar].[Sar].[Sar].[Sar].[Sar].[Sar].[Sar].[Sar].[O=C(CN1CCN(CCN[*:1])CC1)[*:2]].Y.F.[meL].[Nle].[Orn].[meA].R.G.[am]}$$$$V2.0)	> 1000	3.2	10.8
CCCC[C@H](NC(=O)[C@H](CC(C)C)N(C)C(=O)[C@H](Cc1ccccc1)NC(=O)[C@H](Cc1ccc(O)cc1)NC(=O)CN1CCN(CCNC(=O)CN(C)C(=O)CN(C)C(=O)CN(C)C(=O)CN(C)C(=O)CN(C)C(=O)CN(C)C(=O)CN(C)C(=O)CN(C)C(=O)CN(C)C(=O)CN(C)C(=O)CN(C)C(=O)CN(C)C(=O)CN(C)C(=O)CN(C)C(=O)CN(C)C(=O)CC[C@H](NC(=O)CC[C@H](NC(=O)CC[C@H](NC(=O)CCCCCCCCCCCCCCCCC(=O)O)C(=O)O)C(=O)O)C(=O)O)CC1)C(=O)N[C@@H](CCN)C(=O)N(C)[C@@H](C)C(=O)N[C@@H](CCCNC(=N)N)C(=O)NCC(N)=O [Compound 23, C18DA-gGlu3-Sar15-AEPipAc-Tyr-Phe-NMeLeu-Nle-Dbu-NMeAla-Arg-Gly-NH2] (HELM PEPTIDE1{[O=C(O)CCCCCCCCCCCCCCCCC(=O)[*:2]].[gGlu].[gGlu].[gGlu].[Sar].[Sar].[Sar].[Sar].[Sar].[Sar].[Sar].[Sar].[Sar].[Sar].[Sar].[Sar].[Sar].[Sar].[Sar].[O=C(CN1CCN(CCN[*:1])CC1)[*:2]].Y.F.[meL].[Nle].[Dab].[meA].R.G.[am]}$$$$V2.0)	> 1000	3.3	11.1
CCCC[C@H](NC(=O)[C@H](CC(C)C)N(C)C(=O)[C@H](Cc1ccccc1)NC(=O)[C@H](Cc1ccc(O)cc1)NC(=O)CN1CCN(CCNC(=O)CN(C)C(=O)CN(C)C(=O)CN(C)C(=O)CN(C)C(=O)CN(C)C(=O)CN(C)C(=O)CN(C)C(=O)CN(C)C(=O)CN(C)C(=O)CC[C@H](NC(=O)CC[C@H](NC(=O)CC[C@H](NC(=O)CCCCCCCCCCCCCCCCC(=O)O)C(=O)O)C(=O)O)C(=O)O)CC1)C(=O)N[C@@H](CCN)C(=O)N1CCC[C@H]1C(=O)N[C@@H](CCCNC(=N)N)C(=O)NCC(N)=O [Compound 24, C18DA-gGlu3-Sar9-AEPipAc-Tyr-Phe-NMeLeu-Nle-Dbu-Pro-Arg-Gly-NH2] (HELM PEPTIDE1{[O=C(O)CCCCCCCCCCCCCCCCC(=O)[*:2]].[gGlu].[gGlu].[gGlu].[Sar].[Sar].[Sar].[Sar].[Sar].[Sar].[Sar].[Sar].[Sar].[O=C(CN1CCN(CCN[*:1])CC1)[*:2]].Y.F.[meL].[Nle].[Dab].P.R.G.[am]}$$$$V2.0)	1000	1.4	12.6
CCCC[C@H](NC(=O)[C@H](CC(C)C)N(C)C(=O)[C@H](Cc1ccccc1)NC(=O)[C@H](Cc1ccc(O)cc1)NC(=O)CN1CCN(CCNC(=O)CN(C)C(=O)CN(C)C(=O)CN(C)C(=O)CN(C)C(=O)CN(C)C(=O)CN(C)C(=O)CN(C)C(=O)CN(C)C(=O)CN(C)C(=O)CN(C)C(=O)CN(C)C(=O)CN(C)C(=O)CC[C@H](NC(=O)CC[C@H](NC(=O)CC[C@H](NC(=O)CCCCCCCCCCCCCCCCC(=O)O)C(=O)O)C(=O)O)C(=O)O)CC1)C(=O)N[C@@H](CCCNC(=N)N)C(=O)N1CCC[C@H]1C(=O)N[C@@H](CCCNC(=N)N)C(=O)NCC(N)=O [Compound 25, C18DA-gGlu3-Sar12-AEPipAc-Tyr-Phe-NMeLeu-Nle-Arg-Pro-Arg-Gly-NH2]	200	1.1	8.6
CCCC[C@H](NC(=O)[C@H](CC(C)C)N(C)C(=O)[C@H](Cc1ccccc1)NC(=O)[C@H](Cc1ccc(O)cc1)NC(=O)CN1CCN(CCNC(=O)CN(C)C(=O)CN(C)C(=O)CN(C)C(=O)CN(C)C(=O)CN(C)C(=O)CN(C)C(=O)CN(C)C(=O)CN(C)C(=O)CN(C)C(=O)CN(C)C(=O)CN(C)C(=O)CN(C)C(=O)CC[C@H](NC(=O)CC[C@H](NC(=O)CC[C@H](NC(=O)CCCCCCCCCCCCCCCCC(=O)O)C(=O)O)C(=O)O)C(=O)O)CC1)C(=O)N[C@@H](CCN)C(=O)N1CCC[C@H]1C(=O)N[C@@H](CCCNC(=N)N)C(=O)NCC(N)=O [Compound 27, C18DA-gGlu3-Sar12-AEPipAc-Tyr-Phe-NMeLeu-Nle-Dbu-Pro-Arg-Gly-NH2]	1700	1.2	6.9
CCCC[C@H](NC(=O)[C@H](CC(C)C)N(C)C(=O)[C@H](Cc1ccccc1)NC(=O)[C@H](Cc1ccc(O)cc1)NC(=O)CN1CCN(CCNC(=O)CN(C)C(=O)CN(C)C(=O)CN(C)C(=O)CN(C)C(=O)CN(C)C(=O)CN(C)C(=O)CN(C)C(=O)CN(C)C(=O)CN(C)C(=O)CC[C@H](NC(=O)CC[C@H](NC(=O)CC[C@H](NC(=O)CCCCCCCCCCCCCCCCC(=O)O)C(=O)O)C(=O)O)C(=O)O)CC1)C(=O)N[C@@H](CCN)C(=O)N(C)[C@@H](C)C(=O)N[C@@H](CCCNC(=N)N)C(=O)NCC(N)=O [Compound 28, C18DA-gGlu3-Sar9-AEPipAc-Tyr-Phe-NMeLeu-Nle-Dbu-NMeAla-Arg-Gly-NH2] (HELM PEPTIDE1{[O=C(O)CCCCCCCCCCCCCCCCC(=O)[*:2]].[gGlu].[gGlu].[gGlu].[Sar].[Sar].[Sar].[Sar].[Sar].[Sar].[Sar].[Sar].[Sar].[O=C(CN1CCN(CCN[*:1])CC1)[*:2]].Y.F.[meL].[Nle].[Dab].[meA].R.G.[am]}$$$$V2.0)	> 1000	1.4	10.8
CCCC[C@H](NC(=O)[C@H](CC(C)C)N(C)C(=O)[C@H](Cc1ccccc1)NC(=O)[C@H](Cc1ccc(O)cc1)NC(=O)CN1CCN(CCNC(=O)CN(C)C(=O)CN(C)C(=O)CN(C)C(=O)CN(C)C(=O)CN(C)C(=O)CN(C)C(=O)CN(C)C(=O)CN(C)C(=O)CN(C)C(=O)CN(C)C(=O)CN(C)C(=O)CN(C)C(=O)CC[C@H](NC(=O)CC[C@H](NC(=O)CC[C@H](NC(=O)CCCCCCCCCCCCCCCCC(=O)O)C(=O)O)C(=O)O)C(=O)O)CC1)C(=O)N[C@@H](CCN)C(=O)N(C)[C@@H](C)C(=O)N[C@@H](CCCNC(=N)N)C(=O)NCC(N)=O [Compound 38, C18DA-gGlu3-Sar12-AEPipAc-Tyr-Phe-NMeLeu-Nle-Dbu-NMeAla-Arg-Gly-NH2]	> 1000	1.9	9.7
CCCC[C@H](NC(=O)[C@H](CC(C)C)N(C)C(=O)[C@H](Cc1ccccc1)NC(=O)[C@H](Cc1ccc(O)cc1)NC(=O)CN1CCN(CCNC(=O)CN(C)C(=O)CN(C)C(=O)CN(C)C(=O)CN(C)C(=O)CN(C)C(=O)CN(C)C(=O)CN(C)C(=O)CN(C)C(=O)CN(C)C(=O)CC[C@H](NC(=O)CC[C@H](NC(=O)CC[C@H](NC(=O)CCCCCCCCCCCCCCCCCCC(=O)O)C(=O)O)C(=O)O)C(=O)O)CC1)C(=O)N[C@@H](CCCNC(=N)N)C(=O)N1CCC[C@H]1C(=O)N[C@@H](CCCNC(=N)N)C(=O)NCC(N)=O [Compound 65, C20DA-gGlu3-Sar9-AEPipAc-Tyr-Phe-NMeLeu-Nle-Arg-Pro-Arg-Gly-NH2] (HELM PEPTIDE1{[O=C(O)CCCCCCCCCCCCCCCCCCC(=O)[*:2]].[gGlu].[gGlu].[gGlu].[Sar].[Sar].[Sar].[Sar].[Sar].[Sar].[Sar].[Sar].[Sar].[O=C(CN1CCN(CCN[*:1])CC1)[*:2]].Y.F.[meL].[Nle].R.P.R.G.[am]}$$$$V2.0)	130	2.8	11.7
